Measurements taken from ChEMBL document CHEMBL4334512, “Rationally Designed, Conformationally Constrained Inverse Agonists of RORγt-Identification of a Potent, Selective Series with Biologic-Like in Vivo Efficacy” (J Med Chem, 2019).

What was measured:
[1] = Half life in human liver microsomes; assay type: ADME, Microsome
[2] = biological target: T1, Oxysterols receptor LXR-alpha (Homo sapiens, UniProt Q13133); test: Activity at LXRalpha (unknown origin)
T1 sequence (Q13133 whole entry): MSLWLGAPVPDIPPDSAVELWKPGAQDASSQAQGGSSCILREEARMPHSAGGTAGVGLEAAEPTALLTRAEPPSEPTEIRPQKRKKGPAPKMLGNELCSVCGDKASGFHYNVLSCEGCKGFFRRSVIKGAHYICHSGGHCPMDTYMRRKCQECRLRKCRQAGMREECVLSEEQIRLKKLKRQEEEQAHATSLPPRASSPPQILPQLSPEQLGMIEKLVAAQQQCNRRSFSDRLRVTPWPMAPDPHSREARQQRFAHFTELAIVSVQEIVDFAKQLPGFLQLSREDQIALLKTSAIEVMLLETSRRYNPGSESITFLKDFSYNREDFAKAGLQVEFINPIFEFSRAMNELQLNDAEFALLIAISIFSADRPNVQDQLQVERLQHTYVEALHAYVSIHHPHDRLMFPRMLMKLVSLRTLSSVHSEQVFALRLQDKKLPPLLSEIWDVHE

[3] = biological target: T2, Nuclear receptor ROR-alpha (Homo sapiens, UniProt P35398); test: Activity at RORalpha (unknown origin)
T2 sequence (P35398 whole entry): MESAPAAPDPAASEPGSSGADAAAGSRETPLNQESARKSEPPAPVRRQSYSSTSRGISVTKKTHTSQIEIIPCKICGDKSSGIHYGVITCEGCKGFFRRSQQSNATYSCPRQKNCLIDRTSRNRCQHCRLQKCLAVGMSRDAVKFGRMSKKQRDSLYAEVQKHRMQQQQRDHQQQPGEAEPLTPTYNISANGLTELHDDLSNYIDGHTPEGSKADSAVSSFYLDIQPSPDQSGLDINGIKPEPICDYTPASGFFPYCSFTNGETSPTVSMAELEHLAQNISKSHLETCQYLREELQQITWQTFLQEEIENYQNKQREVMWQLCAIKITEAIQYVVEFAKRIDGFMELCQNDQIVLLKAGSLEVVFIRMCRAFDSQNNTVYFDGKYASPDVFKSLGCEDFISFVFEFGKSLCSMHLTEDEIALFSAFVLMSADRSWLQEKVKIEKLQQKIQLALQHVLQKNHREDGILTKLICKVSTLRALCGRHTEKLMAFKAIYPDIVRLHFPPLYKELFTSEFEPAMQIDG

[4] = biological target: T3, Nuclear receptor ROR-beta (Homo sapiens, UniProt Q92753); test: Activity at RORbeta (unknown origin)
T3 sequence (Q92753 whole entry): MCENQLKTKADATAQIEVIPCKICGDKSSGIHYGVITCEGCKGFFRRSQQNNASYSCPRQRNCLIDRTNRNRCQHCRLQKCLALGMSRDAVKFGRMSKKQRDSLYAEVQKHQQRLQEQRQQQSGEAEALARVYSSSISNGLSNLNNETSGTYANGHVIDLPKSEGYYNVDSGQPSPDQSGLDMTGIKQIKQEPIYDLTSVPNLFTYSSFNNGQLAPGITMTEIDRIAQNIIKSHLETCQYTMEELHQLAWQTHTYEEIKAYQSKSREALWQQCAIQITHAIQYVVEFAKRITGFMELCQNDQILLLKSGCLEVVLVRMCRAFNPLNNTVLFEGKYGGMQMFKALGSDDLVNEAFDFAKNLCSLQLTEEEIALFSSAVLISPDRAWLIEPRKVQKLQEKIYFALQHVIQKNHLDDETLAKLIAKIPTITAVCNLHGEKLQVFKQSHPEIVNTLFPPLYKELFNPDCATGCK

[5] = Half life in rat liver microsomes; assay type: ADME, Microsome
[6] = biological target: T4, Nuclear receptor subfamily 1 group I member 2 (Homo sapiens, UniProt O75469); test: Activity at PXR (unknown origin)
T4 sequence (O75469 whole entry): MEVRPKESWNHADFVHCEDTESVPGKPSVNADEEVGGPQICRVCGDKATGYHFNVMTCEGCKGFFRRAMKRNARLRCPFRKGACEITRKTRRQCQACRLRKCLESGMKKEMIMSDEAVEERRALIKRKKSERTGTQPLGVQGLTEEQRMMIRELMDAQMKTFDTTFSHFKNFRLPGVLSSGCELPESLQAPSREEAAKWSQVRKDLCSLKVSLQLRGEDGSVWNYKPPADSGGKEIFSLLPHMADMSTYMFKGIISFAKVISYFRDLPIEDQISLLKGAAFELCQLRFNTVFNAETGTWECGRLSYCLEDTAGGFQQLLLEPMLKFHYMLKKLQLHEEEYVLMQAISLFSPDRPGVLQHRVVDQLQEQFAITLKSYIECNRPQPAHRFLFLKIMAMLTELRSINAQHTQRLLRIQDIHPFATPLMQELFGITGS

[7] = biological target: T5, Oxysterols receptor LXR-beta (Homo sapiens, UniProt P55055); test: Activity at LXRbeta (unknown origin)
T5 sequence (P55055 whole entry): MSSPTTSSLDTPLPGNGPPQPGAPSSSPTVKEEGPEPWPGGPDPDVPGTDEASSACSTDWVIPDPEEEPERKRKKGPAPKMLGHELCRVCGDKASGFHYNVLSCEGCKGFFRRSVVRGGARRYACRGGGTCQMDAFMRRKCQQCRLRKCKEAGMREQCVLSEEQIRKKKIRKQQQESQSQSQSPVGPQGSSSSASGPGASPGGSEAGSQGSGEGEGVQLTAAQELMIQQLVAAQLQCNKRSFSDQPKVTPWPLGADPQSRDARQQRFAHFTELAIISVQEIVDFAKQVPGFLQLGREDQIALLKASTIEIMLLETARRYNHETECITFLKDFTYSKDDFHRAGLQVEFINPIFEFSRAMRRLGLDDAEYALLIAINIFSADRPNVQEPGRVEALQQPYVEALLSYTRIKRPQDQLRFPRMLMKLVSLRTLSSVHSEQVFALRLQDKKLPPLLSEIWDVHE

[8] = Half life in mouse liver microsomes; assay type: ADME, Microsome
[9] = Unbound fraction in human serum; assay type: ADME, cell-free
[10] = Drug level in Balb/c mouse at 10 mg/kg, po after 24 hrs; assay type: ADME, organism-based; settings: in vivo, read-out: Drug uptake
[11] = Cmax in Balb/c mouse at 10 mg/kg, po; assay type: ADME, organism-based; parameters: dose 10 mg/kg, route oral; settings: in vivo

| half-life [1] [min] | IC50 [2] [µM] | IC50 [3] [µM] | IC50 [4] [µM] | half-life [5] [min] | IC50 [6] [µM] | IC50 [7] [µM] | half-life [8] [min] | fraction unbound [9] | concentration at 24 h [10] [nM] | Cmax [11] [µM] | SMILES |
| --- | --- | --- | --- | --- | --- | --- | --- | --- | --- | --- | --- |
| > 120 | > 10 | > 10 | > 10 | > 120 | > 40 | > 10 | > 120 |  |  |  | O=C(O)[C@H]1CC[C@H](C(=O)N2CC[C@@]3(S(=O)(=O)c4ccc(Cl)cc4)c4ccc(C(F)(C(F)(F)F)C(F)(F)F)cc4CC[C@@H]23)CC1 |
|  | > 10 | > 10 | > 10 |  | > 40 | > 10 |  |  |  |  | O=C(O)[C@H]1CC[C@@H](C(=O)N2CC[C@@]3(S(=O)(=O)c4ccc(F)cc4)c4ccc(C(F)(C(F)(F)F)C(F)(F)F)cc4CC[C@@H]23)CC1 |
| > 120 | > 10 | > 10 | > 10 | 104 | > 40 | > 10 | > 120 |  |  |  | C[C@]1(C(=O)O)CC[C@H](C(=O)N2CC[C@@]3(S(=O)(=O)c4ccc(F)cc4)c4ccc(C(F)(C(F)(F)F)C(F)(F)F)cc4CC[C@@H]23)CC1 |
| > 120 | > 10 | > 10 | > 10 | 95 | > 40 | > 10 | > 120 |  |  |  | O=C(N1CC[C@@]2(S(=O)(=O)c3ccc(F)cc3)c3ccc(C(F)(C(F)(F)F)C(F)(F)F)cc3OC[C@@H]12)C1(O)CCS(=O)(=O)CC1 |
| 109 | > 10 | > 10 | > 10 | 107 | > 40 | > 10 | 84 |  |  |  | C[C@]1(C(=O)N2CC[C@@]3(S(=O)(=O)c4ccc(F)cc4)c4ccc(C(F)(C(F)(F)F)C(F)(F)F)cc4CC[C@@H]23)CC[C@H](C(=O)O)CC1 |
|  | > 10 | > 10 | > 10 |  | > 40 | > 10 |  | 0.006 |  |  | O=C(N1CC[C@@]2(S(=O)(=O)c3ccc(F)cc3)c3ccc(C(F)(C(F)(F)F)C(F)(F)F)cc3NC[C@@H]12)C1(O)CCS(=O)(=O)CC1 |
| > 120 | > 10 | > 10 | > 10 | 66 | > 40 | > 10 | > 120 |  |  |  | O=C(C1CCS(=O)(=O)CC1)N1CC[C@@]2(S(=O)(=O)c3ccc(F)cc3)c3ccc(C(F)(C(F)(F)F)C(F)(F)F)cc3CC[C@@H]12 |
| > 120 | > 10 | > 10 | > 10 | > 120 | > 40 | > 10 | > 120 |  | 1600 | 8.6 | O=C(O)[C@H]1CC[C@H](C(=O)N2CC[C@@]3(S(=O)(=O)c4ccc(F)cc4)c4ccc(C(F)(C(F)(F)F)C(F)(F)F)cc4CC[C@@H]23)CC1 |
| 82 | > 10 | > 10 | > 10 | 61 | > 40 | > 10 | > 120 |  |  |  | Cc1ccc(S(=O)(=O)[C@@]23CCN(C(=O)[C@H]4CC[C@H](C(=O)O)CC4)[C@@H]2CCc2cc(C(F)(C(F)(F)F)C(F)(F)F)ccc23)cc1 |
| > 120 | > 10 | > 10 | > 10 | > 120 | > 40 | > 10 | > 120 |  |  |  | O=C(O)[C@H]1CC[C@H](C(=O)N2CC[C@@]3(S(=O)(=O)c4cccc(Cl)c4)c4ccc(C(F)(C(F)(F)F)C(F)(F)F)cc4CC[C@@H]23)CC1 |
|  | > 10 | > 10 | > 10 |  | > 40 | > 10 |  |  |  |  | O=C(O)[C@H]1CC[C@H](C(=O)N2CC[C@@]3(S(=O)(=O)Cc4ccccc4)c4ccc(C(F)(C(F)(F)F)C(F)(F)F)cc4CC[C@@H]23)CC1 |
| 92 | > 10 | > 10 | > 10 | 106 | > 40 | > 10 | > 120 | 0.002 |  |  | CCCN1C[C@H]2N(C(=O)[C@H]3CC[C@H](C(=O)O)CC3)CC[C@@]2(S(=O)(=O)c2ccc(F)cc2)c2ccc(C(F)(C(F)(F)F)C(F)(F)F)cc21 |
| > 120 | > 10 | > 10 | > 10 | > 120 | > 40 | > 10 | > 120 | 0.003 |  |  | O=C(O)[C@H]1CC[C@H](C(=O)N2CC[C@@]3(S(=O)(=O)c4ccc(F)cc4)c4ccc(C(F)(C(F)(F)F)C(F)(F)F)cc4OC[C@@H]23)CC1 |
|  | > 10 | > 10 | > 10 |  | > 40 | > 10 |  |  |  |  | O=C(O)C12CC(C(=O)N3CC[C@@]4(S(=O)(=O)c5ccc(F)cc5)c5ccc(C(F)(C(F)(F)F)C(F)(F)F)cc5CC[C@@H]34)(C1)C2 |
| 110 | > 10 | > 10 | > 10 | > 120 | > 40 | > 10 | 99 |  |  |  | O=C(O)[C@H]1CC[C@H](C(=O)N2CC[C@@]3(S(=O)(=O)c4cccc(F)c4)c4ccc(C(F)(C(F)(F)F)C(F)(F)F)cc4CC[C@@H]23)CC1 |
| 21 | > 10 | > 10 | > 10 | 49 | > 40 | > 10 | 51 |  |  |  | CC(=O)N1CCC(C(=O)N2CC[C@@]3(S(=O)(=O)c4ccc(F)cc4)c4ccc(C(F)(C(F)(F)F)C(F)(F)F)cc4CC[C@@H]23)CC1 |
| > 120 | > 10 | > 10 | > 10 | > 120 | > 40 | > 10 | > 120 | 0.014 |  |  | O=C(O)[C@H]1CC[C@H](C(=O)N2CC[C@@]3(S(=O)(=O)c4ccc(F)cc4)c4ccc(C(F)(C(F)(F)F)C(F)(F)F)cc4NC[C@@H]23)CC1 |
| > 120 | > 10 | > 10 | > 10 | 25 | > 40 | > 10 | > 120 |  |  |  | Cc1cccc(S(=O)(=O)[C@@]23CCN(C(=O)[C@H]4CC[C@H](C(=O)O)CC4)[C@@H]2CCc2cc(C(F)(C(F)(F)F)C(F)(F)F)ccc23)c1 |
